Source: paper PMC9296478, “Discovery of a lectin domain that regulates enzyme activity in mouse N-acetylglucosaminyltransferase-IVa (MGAT4A)” (Communications Biology, 2022)

How the values were obtained:
[1] = target: T1, soluble wild-type GnT-IVa enzyme (Mus musculus, UniProt Q812G0); assay: HPLC assay of PA-labelled product; type: biochemical; conditions: 10 mM MnCl2, 125 mM MES pH 6.25, 200 mM GlcNAc, 37 °C
T1 construct: gene Mgat4a; luminal region, residues 60-526 (catalytic plus lectin domain), N-terminal His tag, secreted from COS7 cells (pcDNA-IH), Ni2+ column purified from medium
T1 sequence (Q812G0 60-526 isoform Q812G0-2 D445A): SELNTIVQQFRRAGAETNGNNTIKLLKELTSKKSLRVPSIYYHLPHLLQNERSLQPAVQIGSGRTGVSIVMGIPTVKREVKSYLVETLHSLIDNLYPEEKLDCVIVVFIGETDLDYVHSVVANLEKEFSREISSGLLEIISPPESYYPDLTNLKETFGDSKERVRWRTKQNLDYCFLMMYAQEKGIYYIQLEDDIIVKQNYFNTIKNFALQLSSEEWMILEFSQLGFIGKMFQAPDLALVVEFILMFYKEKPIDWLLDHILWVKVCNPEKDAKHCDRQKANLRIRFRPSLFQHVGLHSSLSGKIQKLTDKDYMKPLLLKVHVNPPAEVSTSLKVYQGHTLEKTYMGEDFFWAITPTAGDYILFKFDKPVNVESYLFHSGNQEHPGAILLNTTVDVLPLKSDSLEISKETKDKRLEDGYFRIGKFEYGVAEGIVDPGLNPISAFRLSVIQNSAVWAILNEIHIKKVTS

GnT-IVa lectin domain = target: T2, GnT-IVa lectin domain (Mus musculus, UniProt Q812G0); assay: 1H-15N HSQC NMR titration (peak A); type: binding; conditions: 20 mM sodium phosphate pH 6.0, 298 K, 0.4 mM protein; read-out: dissociation constant
T2 construct: gene Mgat4a; C-terminal lectin domain, residues 382-526, expressed in E. coli BL21(DE3) RIPL as GST fusion (pGEX6P-1), GST cleaved by PreScission protease; 15N-labelled for NMR
T2 sequence (Q812G0 382-526 isoform Q812G0-2): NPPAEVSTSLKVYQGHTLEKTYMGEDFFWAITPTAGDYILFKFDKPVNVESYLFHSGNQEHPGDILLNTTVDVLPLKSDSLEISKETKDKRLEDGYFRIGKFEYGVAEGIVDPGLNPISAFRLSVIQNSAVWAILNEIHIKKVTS

Kd (GnT-IVa lectin domain) [mM]	SMILES	further results
	CC(=O)N[C@H]1[C@@H](OP(=O)(O)OP(=O)(O)OC[C@H]2O[C@@H](n3ccc(=O)[nH]c3=O)[C@H](O)[C@@H]2O)O[C@H](CO)[C@@H](O)[C@@H]1O [UDP-GlcNAc]	Km ([1]; 10 μM GnGnbi-PA, 0.625-20 mM UDP-GlcNAc): 3.95 mM
0.32	CC(=O)N[C@H]1[C@H](O[C@@H]2C(O)O[C@H](CO)[C@@H](O)[C@@H]2O)O[C@H](CO)[C@@H](O)[C@@H]1O (stereo partly shown) [GlcNAcβ1-2Man]	
3.1	CC(=O)N[C@H]1C(O)O[C@H](CO)[C@@H](O)[C@@H]1O (stereo partly shown) [GlcNAc]	
	CC(=O)N[C@H]1[C@H](O[C@@H]([C@H](O)[C@H](CNc2ccccn2)NC(C)=O)[C@H](O)CO)O[C@H](CO)[C@@H](O[C@@H]2O[C@H](CO[C@H]3O[C@H](CO)[C@@H](O)[C@H](O)[C@@H]3O[C@@H]3O[C@H](CO)[C@@H](O)[C@H](O)[C@H]3NC(C)=O)[C@@H](O)[C@H](O[C@H]3O[C@H](CO)[C@@H](O)[C@H](O)[C@@H]3O[C@@H]3O[C@H](CO)[C@@H](O)[C@H](O)[C@H]3NC(C)=O)[C@@H]2O)[C@@H]1O [GnGnbi-PA]	Km ([1]; 20 mM UDP-GlcNAc, 32-640 μM acceptor, labelled compound): 1.25 mM
